PubChem BioAssay (NCI)
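Cells were grown in 96-well plates and exposed to each compound for 48 hours at five concentrations; endpoints were interpolated linearly between bracketing concentrations, or set to the highest concentration if not reached. GI50: concentration for 50% inhibition of growth. TGI: total growth inhibition.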

Legend:
Assay in all cases: NCI tumour cell line growth inhibition, 48 h
[1] = tested on: MALME-3M melanoma
[2] = tested on: A498 renal
[3] = tested on: U251 CNS
[4] = tested on: SF-295 CNS
[5] = tested on: UO-31 renal
[6] = tested on: HS 578T breast
[7] = tested on: HCT-15 colon
[8] = tested on: SK-OV-3 ovarian
[9] = tested on: OVCAR-5 ovarian
[10] = tested on: IGROV1 ovarian
[11] = tested on: MDA-MB-231 breast
[12] = tested on: NCI/ADR-RES ovarian
[13] = tested on: K-562 leukemia
[14] = tested on: NCI-H226 lung
[15] = tested on: SF-268 CNS
[16] = tested on: ACHN renal
[17] = tested on: HL-60(TB) leukemia
[18] = tested on: SNB-19 CNS
[19] = tested on: HT29 colon
[20] = tested on: TK-10 renal
[21] = tested on: HCT-116 colon
[22] = tested on: OVCAR-8 ovarian
[23] = tested on: EKVX NSCLC
[24] = tested on: HOP-92 NSCLC
[25] = tested on: CAKI-1 renal
[26] = tested on: UACC-62 melanoma
[27] = tested on: HCC-2998 colon
[28] = tested on: CCRF-CEM leukemia
[29] = tested on: OVCAR-4 ovarian
[30] = tested on: PC-3 prostate
[31] = tested on: DU-145 prostate
[32] = tested on: SNB-75 CNS
[33] = tested on: T-47D breast
[34] = tested on: RPMI-8226 leukemia
[35] = tested on: UACC-257 melanoma
[36] = tested on: RXF 393 renal
[37] = tested on: 786-0 renal
[38] = tested on: KM12 colon
[39] = tested on: LOX IMVI melanoma
[40] = tested on: COLO 205 colon
[41] = tested on: M14 melanoma
[42] = tested on: HOP-62 NSCLC
[43] = tested on: NCI-H23 lung
[44] = tested on: A549 NSCLC
[45] = tested on: SF-539 CNS
[46] = tested on: SW-620 colon
[47] = tested on: OVCAR-3 ovarian
[48] = tested on: SK-MEL-5 melanoma
[49] = tested on: NCI-H522 lung
[50] = tested on: MDA-MB-435
[51] = tested on: NCI-H460 lung
[52] = tested on: SR leukemia
[53] = tested on: SK-MEL-28 melanoma
[54] = tested on: SN12C renal
[55] = tested on: MOLT-4 leukemia
[56] = tested on: MCF7 breast
[57] = tested on: BT-549 breast
[58] = tested on: SK-MEL-2 melanoma

Compound: Cn1cc(-c2nc(-c3c[nH]c4ncccc34)cs2)c2cc(F)ccc21
- GI50 [1]: 2.73 µM
- TGI [1]: 13.4 µM
- GI50 [2]: 2.03 µM
- TGI [2]: 7.48 µM
- GI50 [3]: 2.43 µM
- TGI [3]: 8.08 µM
- GI50 [4]: 2.18 µM
- TGI [4]: 6.93 µM
- GI50 [5]: 2.06 µM
- TGI [5]: 8.12 µM
- GI50 [6]: 4.23 µM
- TGI [6]: > 100 µM
- GI50 [7]: 2.88 µM
- TGI [7]: > 45 µM
- GI50 [8]: 3.9 µM
- TGI [8]: 32.3 µM
- GI50 [9]: 1.25 µM
- TGI [9]: 6.63 µM
- GI50 [10]: 2.51 µM
- TGI [10]: 13.1 µM
- GI50 [11]: 2.32 µM
- TGI [11]: 8.36 µM
- GI50 [12]: 2.47 µM
- TGI [12]: 7.66 µM
- GI50 [13]: 2.19 µM
- TGI [13]: > 22.9 µM
- GI50 [14]: 4.63 µM
- TGI [14]: 25.9 µM
- GI50 [15]: 3.32 µM
- TGI [15]: 22.5 µM
- GI50 [16]: 3.21 µM
- TGI [16]: 14.7 µM
- GI50 [17]: 3.21 µM
- TGI [17]: 15.6 µM
- GI50 [18]: 3.82 µM
- TGI [18]: 20 µM
- GI50 [19]: 2.1 µM
- TGI [19]: 4.53 µM
- GI50 [20]: 2.78 µM
- TGI [20]: 15.3 µM
- GI50 [21]: 2.56 µM
- TGI [21]: 7.22 µM
- GI50 [22]: 2.96 µM
- TGI [22]: > 25.3 µM
- GI50 [23]: 0.6 µM
- TGI [23]: 10.5 µM
- GI50 [24]: 1.92 µM
- TGI [24]: 5.79 µM
- GI50 [25]: 2.2 µM
- TGI [25]: 8.44 µM
- GI50 [26]: 3.65 µM
- TGI [26]: 17.2 µM
- GI50 [27]: 1.98 µM
- TGI [27]: 7.59 µM
- GI50 [28]: 3.04 µM
- TGI [28]: > 52.6 µM
- GI50 [29]: 0.0689 µM
- TGI [29]: 22.2 µM
- GI50 [30]: 2.75 µM
- TGI [30]: 13.1 µM
- GI50 [31]: 3.97 µM
- TGI [31]: 15.2 µM
- GI50 [32]: 2.78 µM
- TGI [32]: 10.1 µM
- GI50 [33]: 0.0443 µM
- TGI [33]: 4.43 µM
- GI50 [34]: 2.81 µM
- TGI [34]: 48.3 µM
- GI50 [35]: 2.72 µM
- TGI [35]: 12.3 µM
- GI50 [36]: 2.49 µM
- TGI [36]: 9.14 µM
- GI50 [37]: 2.82 µM
- TGI [37]: 7.64 µM
- GI50 [38]: 0.83 µM
- TGI [38]: 5.16 µM
- GI50 [39]: 2.48 µM
- TGI [39]: 7.06 µM
- GI50 [40]: 2.69 µM
- TGI [40]: 8.52 µM
- GI50 [41]: 2.93 µM
- TGI [41]: 9.74 µM
- GI50 [42]: 4.11 µM
- TGI [42]: 16.5 µM
- GI50 [43]: 2.4 µM
- TGI [43]: 10.1 µM
- GI50 [44]: 2.81 µM
- TGI [44]: > 25.6 µM
- GI50 [45]: 3.8 µM
- TGI [45]: 15.3 µM
- GI50 [46]: 2.67 µM
- TGI [46]: 9.73 µM
- GI50 [47]: 3.02 µM
- TGI [47]: 8.25 µM
- GI50 [48]: 2.6 µM
- TGI [48]: 11.5 µM
- GI50 [49]: 2.7 µM
- TGI [49]: 9.89 µM
- GI50 [50]: 1.12 µM
- TGI [50]: 4.88 µM
- GI50 [51]: 1.89 µM
- TGI [51]: 6.72 µM
- GI50 [52]: 2.44 µM
- TGI [52]: 7.8 µM
- GI50 [53]: 4.75 µM
- TGI [53]: 16.9 µM
- GI50 [54]: 3.47 µM
- TGI [54]: 15.3 µM
- GI50 [55]: 3.16 µM
- TGI [55]: 17 µM
- GI50 [56]: 1.13 µM
- TGI [56]: 6.53 µM
- GI50 [57]: 3.7 µM
- TGI [57]: 13.6 µM
- GI50 [58]: 3.81 µM
- TGI [58]: 11.1 µM

Compound: O=[N+]([O-])c1ccc(Br)c([N+](=O)[O-])c1
- GI50 [1]: 1.96 µM
- TGI [1]: 4.18 µM
- GI50 [2]: 14.3 µM
- TGI [2]: 27.7 µM
- GI50 [3]: 1.72 µM
- TGI [3]: 3.29 µM
- GI50 [4]: 2.38 µM
- TGI [4]: 5.96 µM
- GI50 [5]: 0.266 µM
- TGI [5]: 0.779 µM
- GI50 [6]: 1.98 µM
- TGI [6]: 4.97 µM
- GI50 [7]: 1.93 µM
- TGI [7]: 4.59 µM
- GI50 [8]: 8.37 µM
- TGI [8]: 20.6 µM
- GI50 [9]: 1.77 µM
- TGI [9]: 3.5 µM
- GI50 [10]: 1.92 µM
- TGI [10]: 3.94 µM
- GI50 [11]: 2.68 µM
- TGI [11]: 7.12 µM
- GI50 [12]: 2.39 µM
- TGI [12]: 5.69 µM
- GI50 [13]: 1.98 µM
- TGI [13]: > 23.5 µM
- GI50 [14]: 8.36 µM
- TGI [14]: 23.5 µM
- GI50 [15]: 1.93 µM
- TGI [15]: 3.94 µM
- GI50 [16]: 1.8 µM
- TGI [16]: 3.48 µM
- GI50 [17]: 1.41 µM
- TGI [17]: 3.54 µM
- GI50 [18]: 2.9 µM
- TGI [18]: 9.28 µM
- GI50 [20]: 2.3 µM
- TGI [20]: 6.22 µM
- GI50 [21]: 2.09 µM
- TGI [21]: 5.02 µM
- GI50 [22]: 2.49 µM
- TGI [22]: 6.05 µM
- GI50 [23]: 1.84 µM
- TGI [23]: 4 µM
- GI50 [24]: 1.94 µM
- TGI [24]: 4.02 µM
- GI50 [25]: 0.406 µM
- TGI [25]: 0.954 µM
- GI50 [26]: 2.56 µM
- TGI [26]: 6.87 µM
- GI50 [27]: 4.73 µM
- TGI [27]: 16.7 µM
- GI50 [28]: 1.79 µM
- TGI [28]: 6.83 µM
- GI50 [29]: 1.72 µM
- TGI [29]: 3.19 µM
- GI50 [30]: 1.94 µM
- TGI [30]: 3.93 µM
- GI50 [31]: 1.72 µM
- TGI [31]: 3.12 µM
- GI50 [32]: 1.69 µM
- TGI [32]: 4.36 µM
- GI50 [33]: 2.13 µM
- TGI [33]: 4.94 µM
- GI50 [34]: 2.36 µM
- TGI [34]: 5.51 µM
- GI50 [35]: 1.86 µM
- TGI [35]: 3.37 µM
- GI50 [36]: 1.83 µM
- TGI [36]: 3.36 µM
- GI50 [37]: 3.35 µM
- TGI [37]: 10.9 µM
- GI50 [38]: 1.8 µM
- TGI [38]: 3.23 µM
- GI50 [39]: 1.67 µM
- TGI [39]: 3.38 µM
- GI50 [40]: 1.72 µM
- TGI [40]: 3.32 µM
- GI50 [41]: 1.74 µM
- TGI [41]: 3.27 µM
- GI50 [42]: 1.78 µM
- TGI [42]: 3.24 µM
- GI50 [43]: 1.82 µM
- TGI [43]: 3.66 µM
- GI50 [44]: 4.12 µM
- TGI [44]: 16.4 µM
- GI50 [45]: 2.06 µM
- TGI [45]: 5.01 µM
- GI50 [46]: 1.83 µM
- TGI [46]: 4.13 µM
- GI50 [47]: 1.88 µM
- TGI [47]: 3.38 µM
- GI50 [48]: 2.3 µM
- TGI [48]: 5.64 µM
- GI50 [49]: 0.163 µM
- TGI [49]: 0.355 µM
- GI50 [50]: 1.85 µM
- TGI [50]: 3.58 µM
- GI50 [51]: 2.56 µM
- TGI [51]: 8.72 µM
- GI50 [52]: 1.56 µM
- TGI [52]: 5.64 µM
- GI50 [53]: 1.89 µM
- TGI [53]: 3.64 µM
- GI50 [54]: 2.37 µM
- TGI [54]: 5.68 µM
- GI50 [55]: 2.52 µM
- TGI [55]: 6.71 µM
- GI50 [56]: 1.9 µM
- TGI [56]: 4.75 µM
- GI50 [57]: 5.32 µM
- TGI [57]: 10.9 µM
- GI50 [58]: 3.23 µM
- TGI [58]: 10.3 µM
